{
  "source": "paper PMC10258805",
  "about": "“Nonpeptidic Oxazole-Based Prolyl Oligopeptidase Ligands with Disease-Modifying Effects on α-Synuclein Mouse Models of Parkinson’s Disease” (Journal of Medicinal Chemistry, 2023)",
  "key": {"[1]": {"tested_on": "oligomeric αSyn in AAV-αSyn-injected mice", "assay": "Oligomer-specific αSyn immunoreactivity (OD) in AAV-αSyn PD mouse model", "details": "10 mg/kg/day minipump, 4 weeks"}, "[2]": {"tested_on": "AAV2-CBA-αSyn-injected mice", "assay": "Cylinder test in AAV-αSyn PD mouse model", "details": "10 mg/kg/day minipump, after 2 weeks of treatment (6-week time point), vs vehicle-treated AAV-αSyn mice"}, "LC3BII in HEK-293 cells": {"tested_on": "LC3BII in HEK-293 cells", "assay": "Autophagy marker LC3BII assay (Western blot)", "assay_type": "cell-based, human", "details": "HEK-293, 10 μM"}, "[3]": {"tested_on": "pPP2Ac and PP2Ac in mouse brain", "assay": "PP2A markers in mouse brain (Western blot)", "assay_type": "in vivo", "details": "10 mg/kg i.p., 45 min after injection"}, "[4]": {"tested_on": "pPP2Ac and PP2Ac in HEK-293 cells", "assay": "PP2A marker assay (Western blot)", "assay_type": "cell-based, human", "details": "HEK-293, 10 μM, 4 h"}},
  "data": [
    {"smiles": "N#C[C@@H]1CCCN1C(=O)[C@@H]1CCCN1C(=O)CCCc1ccccc1", "note": "[KYP-2047, reference compound]", "values": [
      {"measurement": "OD of oligomeric αSyn in the SNpc (in words)", "setting": "[1]; vs vehicle-treated group", "result": "did not significantly reduce"},
      {"measurement": "OD of oligomer-specific αSyn in the STR (in words)", "setting": "[1]; vs vehicle-treated mice", "result": "decreased the OD of oligomer-specific αSyn"},
      {"measurement": "use of the ipsilateral forepaw in the cylinder test (in words)", "setting": "[2]", "result": "significantly decreased their use of the ipsilateral forepaw"},
      {"measurement": "LC3BII levels (in words)", "setting": "LC3BII in HEK-293 cells; 4 h", "result": "significant increase in LC3BII levels"},
      {"measurement": "LC3BII levels (in words)", "setting": "LC3BII in HEK-293 cells; 24 h", "result": "significantly elevated LC3BII levels"},
      {"measurement": "inactive pPP2Ac levels in mouse brain (in words)", "setting": "[3]", "result": "decreased inactive pPP2Ac levels, but this was not significant"},
      {"measurement": "levels of PP2Ac in mouse brain (in words)", "setting": "[3]", "result": "significantly increased the levels of PP2Ac"},
      {"measurement": "total PP2Ac levels (in words)", "setting": "[4]", "result": "elevated total PP2Ac levels"}
    ]}
  ]
}
